In patent EP0408782A1, “Antihypoxic agent” (NAUCHNOISSLEDOVATELSKI CHIMIKOPHARMATZEVTICHEN INSTITUT, priority 1989, dated 1991):
Like-named read-outs stand apart in the source and are kept apart here.

Tests used:
mice [1] = test: hypobaric hypoxia in mice (survival time in decompression chamber, 210 mmHg); type: in vivo, white mice line H; conditions: 1 hour before the hypoxia
Method: EXAMPLE 1: Pharmacological study: Cerebro-protective anti-hypoxic effect using the method "hypobaric hypoxia" in mice. The experiments are carried out on white mice line H (18-22 g) in groups of 8 animals. […] The survival time (in seconds) from the beginning of the hypoxia till the death of the animals was measured. The results were calculated as a percentage towards the control group. […]

mice [2] = test: complete ischaemia by decapitation in mice (duration of respiratory movements of the isolated head); type: in vivo, white mice line H; conditions: 1 hour before
Method: Example 2. Pharmacological study of the cerebro-protective anti-ischaemic effect using the method of"complete ischaemia by decapitation" in mice. The experiments are carried out on white mice line H (18-22g) in groups of 8 animals. Complete […] caused by means of a decapitation of the animals using the method of Hollowach-Thurston et al.(9). The duration of the respiratory movements of the isolated head (in seconds) was measured. The results are calculated as a percentage towards the control group. […]

mice [3] = conditions: mouse, in vivo
in vivo = conditions: mouse

SMILES	Increase of the resistancy towards hypoxia (% towards the control group) (mice [1]; 10 mg/kg intraperitoneally)	Increase of the resistance towards ischaemia (% towards the control group) (mice [2]; 10 mg/kg intraperitoneally)	LD₅₀ (mice [3]; ip)	LD₅₀ (mice [3]; po)	LD50 (in vivo; ip) [mg/kg]	LD50 (in vivo; po) [mg/kg]	Increase of the resistancy towards hypoxia (% towards the control group) (mice [1]; 1600 mg/kg intraperitoneally)	Increase of the resistance towards ischaemia (% towards the control group) (mice [2]; 1600 mg/kg intraperitoneally)
Fc1ccc(C(c2ccc(F)cc2)N2CCN(C/C=C/c3ccccc3)CC2)cc1 [Flunarizine]	11,7%	42,8%	204/158+264/ mg/kg	232/182+295/ mg/kg	204	232		
NC(=O)CN1CCCC1=O [Piracetam, 2-oxo-1-pyrrolidineacetamide]					8000	8000	22,8%	27,9%
